Paper PMC8344233, “Anticancer activity and toxicity of new quaternary ammonium geldanamycin derivative salts and their mixtures with potentiators” (Journal of Enzyme Inhibition and Medicinal Chemistry, 2021)

How the values were obtained:
MDA-MB-231 = assay: MTT cytotoxicity assay, MDA-MB-231 (1st panel); type: cell-based, human; details: for IC50: Homo sapiens, MDA-MB-231, ± SD, MTT, 72 h; for selectivity index SI (MDA-MB-231): IC50 normal cell line CCD39Lu/IC50 MDA-MB-231
Protocol: (§1) Cell survival was measured as the percentage absorbance compared to the control (nontreated cells). […]
(§2) SI indexes were calculated from equation SI = IC50 normal cell line HDF/IC50 respective cancerous cell line (Table 2). A beneficial SI > 1.0 indicates a compound with efficacy against tumor cell greater than the toxicity against normal cells.
(§3) All experiments were carried out with human breast adenocarcinoma (MDA-MB-231 and MCF-7), hepatocellular carcinoma (HepG2), human cervical adenocarcinoma (HeLa) cancer cell lines, and human normal lung fibroblast (CCD39Lu) cell line. The cell line was purchased from the European Collection of Cells Cultures (ECACC, Salisbury, UK), and cultured in DMEM with phenol red supplemented with 10% (v/v) FBS, 1% (v/v) penicillin/streptomycin, and 1% (v/v) L-glutamine at 37 °C, in a humidified atmosphere containing 5% CO2.
(§4) The tested compounds were dissolved in DMSO to the final concentration 10 mM and stored […]
(§5) The cytotoxic effect of the tested compounds was determined by MTT assay. MDA-MB-231, MCF-7, HepG2, HeLa, and CCD39Lu cells were seeded in 96 wells plates at density 2x10^4 cells/well and incubated overnight under cell culture condition. Next, cells were treated with tested compounds at concentrations of 10 µM; 5 µM; 2.5 µM; 1.2 µM; 0.6 µM; 0.3 µM; 0.15 […]
(§6) µM. Moreover, GDM (for MCF-7) and 8 (for MCF-7 and MDA-MB-231) due to high cytotoxicity, were additionally tested at a lower concentration range of 2.5 µM; 1.2 µM; 0.6 µM; 0.3 µM; 0.15µM; 0.07 µM; 0.03 µM. DMSO was used as a control, and the concentration […]
(§7) Tested compounds were added to cells in the medium without phenol red. Cells were incubated 72 h at 37 °C in a humidified atmosphere containing 5% CO2.
(§8) Then, the medium was aspirated and MTT solution at a concentration of 0.59 mg/mL in cell culture medium was added to each well. Plates were incubated for 1.5 hours at 37 °C, and then plates were centrifuged for 3 minutes. The formazan crystals were dissolved in 200 µl DMSO and plates were agitated on a plate shaker at 300 –500 rpm for 10 minutes. Absorbance at 570 nm was measured using a plate reader (Biotek Instruments, Elx -800). Data were normalized to the mean absorption of control cells. All experiments were performed at least three times. […]

MCF-7 = assay: MTT cytotoxicity assay, MCF-7 (1st panel); type: cell-based, human; details: for IC50: Homo sapiens, MCF7, 72 h, ± SD, MTT, 72 h; for selectivity index SI (MCF-7): IC50 normal cell line CCD39Lu/IC50 MCF-7
Protocol: as §1, §2, §3, §4, §5, §6, §7, §8

HeLa = assay: MTT cytotoxicity assay, HeLa (1st panel); type: cell-based, human; details: for IC50: Homo sapiens, HeLa, ± SD, MTT, 72 h; for selectivity index SI (HeLa): IC50 normal cell line CCD39Lu/IC50 HeLa
Protocol: as §1, §2, §3, §4, §5, §6, §7, §8

HepG2 = assay: MTT cytotoxicity assay, HepG2 (1st panel); type: cell-based, human; details: for IC50: Homo sapiens, HepG2, ± SD, MTT, 72 h; for selectivity index SI (HepG2): IC50 normal cell line CCD39Lu/IC50 HepG2
Protocol: as §1, §2, §3, §4, §5, §6, §7, §8

CCD39Lu = assay: MTT cytotoxicity assay, normal lung fibroblasts CCD39Lu; type: cell-based; details: Fibroblast, ± SD, healthy human lung fibroblasts, 72 h, read-out: IC50 CCD39Lu (toxicity in normal cells)
Protocol: as §1, §2, §3, §4, §5, §6, §7, §8

Structure (SMILES)	IC50 (MDA-MB-231) [nM]	selectivity index SI (MDA-MB-231) (MDA-MB-231)	IC50 (MCF-7) [nM]	selectivity index SI (MCF-7) (MCF-7)	IC50 (HeLa) [nM]	selectivity index SI (HeLa) (HeLa)	IC50 (HepG2) [nM]	selectivity index SI (HepG2) (HepG2)	IC50 (CCD39Lu) [µM]
CO[C@H]1/C=C\C=C(/C)C(=O)NC2=CC(=O)C(NC3CCN(Cc4ccccc4)CC3)=C(C[C@@H](C)C[C@H](OC)[C@H](O)[C@@H](C)/C=C(\C)[C@@H]1OC(N)=O)C2=O [Compound 5]	2280 ± 540	6.71	1840 ± 570	8.32	1560 ± 140	9.81	1630 ± 490	9.39	15.3 ± 0.12
CO[C@H]1/C=C\C=C(/C)C(=O)NC2=CC(=O)C(NC3CCN(C(C)=O)CC3)=C(C[C@@H](C)C[C@H](OC)[C@H](O)[C@@H](C)/C=C(\C)[C@@H]1OC(N)=O)C2=O [Compound 6]	3160 ± 890	> 3.16	610 ± 140	> 16.39	4750 ± 350	> 2.11	3380 ± 130	> 2.96	> 10
CO[C@H]1/C=C\C=C(/C)C(=O)NC2=CC(=O)C(NC3CCN(S(C)(=O)=O)CC3)=C(C[C@@H](C)C[C@H](OC)[C@H](O)[C@@H](C)/C=C(\C)[C@@H]1OC(N)=O)C2=O [Compound 7]	2360 ± 350	5.34	960 ± 510	13.13	1610 ± 610	7.83	1680 ± 320	7.50	12.6 ± 0.21
